Values of other authors, collected in patent EP3111929B1, “ORAL DISINTEGRATING FILM FORMULATION CONTAINING TADALAFIL AND PREPARATION METHOD THEREFOR” (Wooshin Labottach Co., Ltd., priority 2014, dated 2015).

What was measured:
[1] = water; background statement
[2] = tested on: PDE5/PDE6; conditions: compared with sildenafil; background statement

CN1CC(=O)N2[C@H](c3ccc4c(c3)OCO4)c3[nH]c4ccccc4c3C[C@@H]2C1=O [tadalafil, (6R, 12aR)-6-(1,3-benzodioxol-5-yl)-2,3,6,7,12,12a-hexahydro-2-methyl-pyrazino[1',2':1,6]p yrido[3,4-b]indole-1,4-dion]
solubility [1]: actually water-insoluble | selectivity of PDE5/PDE6 [2]: better than sildenafil
